In patent US8497283B2, “Autotaxin inhibitors” (Merck Patent GmbH, priority 2009, dated 2013):
pIC50: −log10 of the molar value.

target: T1, recombinant autotaxin (Homo sapiens, UniProt Q13822); assay: Autotaxin assay (Amplex Red fluorescence, LPC substrate); type: biochemical; conditions: ten serial 1:3 dilutions starting at 30 μM, duplicates; 75 μM LPC; values given as upper bounds
T1 construct: made in house; host or cells: Hi5 insect cells (baculovirus)
Method: Autotaxin activity is measured indirectly by means of Amplex Red Reagent. In this course, Amplex Red is measured as fluorogenic indicator for generated H2O2. Autotaxin converts substrate lysophosphatidylcholine (LPC) to phosphocholine and lysophosphatidylic acid (LPA). After the conversion phosphocholine is reacted with alkaline phosphatase to obtain inorganic phosphate and choline. During the next step choline is oxidized with choline oxidase to yield betaine, whereby H2O2 is generated. H2O2 reacts with Amplex Red Reagent in the presence of peroxidase (Horseradish peroxidase) in an 1:1 stochiometry and yields highly fluorescent resorufin. The generated fluorescence is measured in a reaction-dependent kinetic mode in order to enable subtraction of fluorescence signals of possible other fluorescent compounds that are not part of the reaction from total measured fluorescence.
1.5 μl of a standard solution or of the compounds of the invention are dissolved in 20 mM Hepes pH 7.2 with maximally 7.7% DMSO in individual concentrations. The resulting solution is pre-incubated together with 10 μl (16 ng) of highly purified recombinant autotaxin in a black 384-hole microtiter plate for 30 min at 22° C.
Thereafter, the reaction is started through the addition of 5 μl L-a-lysophosphatidyl-choline (LPC), whereby the final concentration of LPC is 75 μM. The mixture is incubated for 90 min. at 37° C. After the incubation Amplex Red Reagent, peroxidase (Horseradish peroxidase) and choline oxidase are added. The fluorescence is immediately measured at a wavelength of 612 nm with an excitation wavelength of 485 nm in a “Tecan Ultra multimode” fluorescence reader. The activity of autotaxin is indirectly calculated via the amount of detected generated H2O2.
For IC50 analysis, ten serial 1:3 dilutions starting at 30 μM for each compound were run in duplicates.
IC50 values were calculated on normalized data. For normalization, control wells were added to each assay plate and the signal of uninhibited control wells was set to 100%, whereas the signal inhibited by 500 μM C14 LPA, (Avanti Polar Lipids, Cat#857120P) was set to 0%. Curves were fitted and IC50 values calculated by the following model using proprietory analysis software: Y=Bottom+(100−Bottom)/(1+10^((Log IC50−X)*HillSlope))
Where X is the logarithm of concentration. Y is the response;
Y starts at Bottom and goes to Top with a sigmoid shape.
Protein: Recombinant autotaxin (baculoviral Hi5 expression)
Substrate: L-a-lysophosphatidyl choline (chicken egg); Avanti Polar Lipids #830071P
Standard: C14 LPA, Avanti Polar Lipids, Cat#857120P
Detection Reagent Amplex Red Reagent; Invitrogen #A12222; dissolved in 1.923 ml of DMSO peroxidase Type VI-A (horseradish), Sigma #P6782; dissolved in 7.45 ml of test buffer, Choline Oxidase; Sigma #C5896; dissolved in 2.47 ml test buffer
Detection Reagent Mix: 1:100 dilution of Amplex Red Regent in test buffer
Test buffer: 200 mM Tris-HCl, Merck, Cat #1.08219, pH 7.9; 0.1% BSA, lipid free, Roche Cat#775835

SMILES	pIC50
O=C(Nc1ccc2c(c1)CCN(C(=O)c1ccc3[nH]nnc3c1)C2)OCc1cc(Cl)cc(Cl)c1 [Compound 48, [2-(1H-Benzotriazole-5-carbonyl)-1,2,3,4-tetrahydro-isoquinolin-6-yl]-carbamic acid 3,5-dichloro-benzyl ester]	> 5.00
O=C(NCc1ccc(SC(F)(F)F)cc1)c1[nH]nc2c1CCN(C(=O)c1ccc3[nH]nnc3c1)C2 [Compound 49, 6-(1H-Benzotriazole-5-carbonyl)-4,5,6,7-tetrahydro-2H-pyrazolo[3,4-c]pyridine-3-carboxylic acid 4-trifluoromethylsulfanyl-benzylamide]	> 4.52
O=C(NCc1ccc(F)c(Br)c1)c1[nH]nc2c1CCN(C(=O)c1ccc3[nH]nnc3c1)C2 [Compound 51, 6-(1H-Benzotriazole-5-carbonyl)-4,5,6,7-tetrahydro-2H-pyrazolo[3,4-c]pyridine-3-carboxylic acid 3-bromo-4-fluoro-benzylamide]	> 6.00
COc1ccc(C2CCCN(C(=O)c3[nH]nc4c3CCN(C(=O)c3ccc5[nH]nnc5c3)C4)C2)cc1 (stereo not shown) [Compound 59, (1H-Benzotriazol-5-yl)-{3-[3-(4-methoxy-phenyl)-piperidine-1-carbonyl]-2,4,5,7-tetrahydro-pyrazolo[3,4-c]pyridin-6-yl}-methanone]	> 4.52
O=C(NCc1ccc(OC(F)(F)F)cc1)c1[nH]nc2c1CCN(C(=O)c1ccc3[nH]nnc3c1)C2 [Compound 60, 6-(1H-Benzotriazole-5-carbonyl)-4,5,6,7-tetrahydro-2H-pyrazolo[3,4-c]pyridine-3-carboxylic acid 4-trifluoromethoxy-benzylamide]	> 4.52
COc1ccc2c(c1)CCC(NC(=O)c1[nH]nc3c1CCN(C(=O)c1ccc4[nH]nnc4c1)C3)C2 (stereo not shown) [Compound 62, 6-(1H-Benzotriazole-5-carbonyl)-4,5,6,7-tetrahydro-2H-pyrazolo[3,4-c]pyridine-3-carboxylic acid (6-methoxy-1,2,3,4-tetrahydro-naphthalen-2-yl)-amide]	> 5.00
COC(=O)CC(NC(=O)c1[nH]nc2c1CCN(C(=O)c1ccc3[nH]nnc3c1)C2)c1ccc(C(C)(C)C)cc1 (stereo not shown) [Compound 63, 3-{[6-(1H-Benzotriazole-5-carbonyl)-4,5,6,7-tetrahydro-2H-pyrazolo[3,4-c]pyridine-3-carbonyl]-amino}-3-(4-tert-butyl-phenyl)-propionic acid methyl ester]	> 4.52

Further lines, results first:

pIC50	SMILES
> 6.00	O=C(Nc1ccc2[nH]nnc2c1)c1n[nH]c2c1CCN(C(=O)OCc1ccc(C(F)(F)F)cc1)C2 [Compound 50, 3-(1H-Benzotriazol-5-ylcarbamoyl)-1,4,5,7-tetrahydro-pyrazolo[3,4-c]pyridine-6-carboxylic acid 4-trifluoromethyl-benzyl ester]
> 6.00	O=C(Nc1ccc2[nH]nnc2c1)c1[nH]nc2c1CCN(C(=O)OCc1cc(Cl)cc(Cl)c1)C2 [Compound 52, 3-(1H-Benzotriazol-5-ylcarbamoyl)-2,4,5,7-tetrahydro-pyrazolo[3,4-c]pyridine-6-carboxylic acid 3,5-dichloro-benzyl ester]
> 6.00	O=C(Nc1ccc2[nH]nnc2c1)c1[nH]nc2c1CCN(C(=O)OCc1cc(C(F)(F)F)cc(C(F)(F)F)c1)C2 [Compound 53, 3-(1H-Benzotriazol-5-ylcarbamoyl)-2,4,5,7-tetrahydro-pyrazolo[3,4-c]pyridine-6-carboxylic acid 3,5-bis-trifluoromethyl-benzyl ester]
> 5.00	O=C(Nc1ccc2[nH]nnc2c1)c1[nH]nc2c1CCN(C(=O)OCc1ccc(C(F)(F)F)c(Cl)c1)C2 [Compound 54, 3-(1H-Benzotriazol-5-ylcarbamoyl)-2,4,5,7-tetrahydro-pyrazolo[3,4-c]pyridine-6-carboxylic acid 3-chloro-4-trifluoromethyl-benzyl ester]
> 6.00	O=C(Nc1ccc2[nH]nnc2c1)c1[nH]nc2c1CCN(C(=O)OCc1cccc(C(F)(F)F)c1)C2 [Compound 55, 3-(1H-Benzotriazol-5-ylcarbamoyl)-2,4,5,7-tetrahydro-pyrazolo[3,4-c]pyridine-6-carboxylic acid 3-trifluoromethyl-benzyl ester]
> 6.00	O=C(Nc1ccc2[nH]nnc2c1)c1[nH]nc2c1CCN(C(=O)OCc1ccc(SC(F)(F)F)cc1)C2 [Compound 56, 3-(1H-Benzotriazol-5-ylcarbamoyl)-2,4,5,7-tetrahydro-pyrazolo[3,4-c]pyridine-6-carboxylic acid 4-trifluoromethylsulfanyl-benzyl ester]
> 5.00	O=C(Nc1ccc2[nH]nnc2c1)c1[nH]nc2c1CCN(C(=O)OCc1ccc(OC(F)(F)F)cc1)C2 [Compound 57, 3-(1H-Benzotriazol-5-ylcarbamoyl)-2,4,5,7-tetrahydro-pyrazolo[3,4-c]pyridine-6-carboxylic acid 4-trifluoromethoxy-benzyl ester]
> 6.00	O=C(Nc1ccc2[nH]nnc2c1)c1[nH]nc2c1CCN(C(=O)OCc1ccc(OC(F)(F)F)c(Cl)c1)C2 [Compound 58, 3-(1H-Benzotriazol-5-ylcarbamoyl)-2,4,5,7-tetrahydro-pyrazolo[3,4-c]pyridine-6-carboxylic acid 3-chloro-4-trifluoromethoxy-benzyl ester]
> 5.00	O=C(NCc1ccc(C(F)(F)F)cc1)c1[nH]nc2c1CCN(C(=O)c1ccc3[nH]nnc3c1)C2 [Compound 61, 6-(1H-Benzotriazole-5-carbonyl)-4,5,6,7-tetrahydro-2H-pyrazolo[3,4-c]pyridine-3-carboxylic acid 4-trifluoromethyl-benzylamide]
